The subject of one data set is KARPAS-299. The experiment in a line: cells. The note with it: Homo sapiens, KARPAS-299, 72 h.
A further data set relates to A549. Put plainly: cells. Particulars: Homo sapiens, A549, 72 h.
For data set [1], the system named is NCI-H2228. The experiment in a line: cells. The note with it: Homo sapiens, NCI-H2228, 72 h.
Description: Antiproliferative activity against EML4-ALK-positive human NCI-H2228 cells incubated for 72 hrs and measured by CCK-8 assay
The subject of another data set is NCI-H3122. The experiment in a line: cells. Particulars: Homo sapiens, NCI-H3122, 72 h.
The subject of data set [2] is NCI-H2228. The experiment in a line: Induction of apoptosis in EML4-ALK-positive human NCI-H2228 cells assessed as apoptotic rate at 100 nM measured after 48 hrs by annexin V-FITC/propidium iodide staining based flow cytometry (reference value: 6.6%). It counts as functional. Background: In flow cytometry, cells or beads pass a laser one at a time.
In the next data set the test system is PC-3. Put plainly: Antiproliferative activity against human PC-3 cells incubated for 72 hrs and measured by CCK-8 assay. It counts as functional, cell-based. The note with it: PC-3, 72 h. (Tetrazolium dyes change colour on reduction, which living cells bring about.)
The nature of data set [3]: Cytotoxicity against human HELF cells incubated for 72 hrs and measured by CCK-8 assay. The class given is toxicity, cell-based.
The test system of a further data set is NCI-H1581. Put plainly: Antiproliferative activity against human NCI-H1581 cells incubated for 72 hrs and measured by CCK-8 assay. The class given is functional, cell-based. The note with it: NCI-H1581, 72 h.
In a further data set the test system is MCF7. Put plainly: Antiproliferative activity against human MCF7 cells incubated for 72 hrs and measured by CCK-8 assay. The class given is functional, cell-based. Particulars: MCF7, 72 h.
In a further data set the test system is HCT-116. The experiment in a line: Antiproliferative activity against human HCT-116 cells incubated for 72 hrs and measured by CCK-8 assay. It counts as functional, cell-based. The note with it: HCT-116, 72 h.
Data set [4] concerns the target ALK tyrosine kinase receptor (Homo sapiens, UniProt Q9UM73, G1202R). Put plainly: Inhibition of ALK G1202R mutant (unknown origin) incubated for 1 hr and measured by mobility shift assay.
In data set [5] the target is ALK tyrosine kinase receptor (Homo sapiens, UniProt Q9UM73). The experiment in a line: Inhibition of ALK (unknown origin) incubated for 1 hr and measured by mobility shift assay.
Sequence of ALK tyrosine kinase receptor (Homo sapiens, UniProt Q9UM73) (Q9UM73 whole entry): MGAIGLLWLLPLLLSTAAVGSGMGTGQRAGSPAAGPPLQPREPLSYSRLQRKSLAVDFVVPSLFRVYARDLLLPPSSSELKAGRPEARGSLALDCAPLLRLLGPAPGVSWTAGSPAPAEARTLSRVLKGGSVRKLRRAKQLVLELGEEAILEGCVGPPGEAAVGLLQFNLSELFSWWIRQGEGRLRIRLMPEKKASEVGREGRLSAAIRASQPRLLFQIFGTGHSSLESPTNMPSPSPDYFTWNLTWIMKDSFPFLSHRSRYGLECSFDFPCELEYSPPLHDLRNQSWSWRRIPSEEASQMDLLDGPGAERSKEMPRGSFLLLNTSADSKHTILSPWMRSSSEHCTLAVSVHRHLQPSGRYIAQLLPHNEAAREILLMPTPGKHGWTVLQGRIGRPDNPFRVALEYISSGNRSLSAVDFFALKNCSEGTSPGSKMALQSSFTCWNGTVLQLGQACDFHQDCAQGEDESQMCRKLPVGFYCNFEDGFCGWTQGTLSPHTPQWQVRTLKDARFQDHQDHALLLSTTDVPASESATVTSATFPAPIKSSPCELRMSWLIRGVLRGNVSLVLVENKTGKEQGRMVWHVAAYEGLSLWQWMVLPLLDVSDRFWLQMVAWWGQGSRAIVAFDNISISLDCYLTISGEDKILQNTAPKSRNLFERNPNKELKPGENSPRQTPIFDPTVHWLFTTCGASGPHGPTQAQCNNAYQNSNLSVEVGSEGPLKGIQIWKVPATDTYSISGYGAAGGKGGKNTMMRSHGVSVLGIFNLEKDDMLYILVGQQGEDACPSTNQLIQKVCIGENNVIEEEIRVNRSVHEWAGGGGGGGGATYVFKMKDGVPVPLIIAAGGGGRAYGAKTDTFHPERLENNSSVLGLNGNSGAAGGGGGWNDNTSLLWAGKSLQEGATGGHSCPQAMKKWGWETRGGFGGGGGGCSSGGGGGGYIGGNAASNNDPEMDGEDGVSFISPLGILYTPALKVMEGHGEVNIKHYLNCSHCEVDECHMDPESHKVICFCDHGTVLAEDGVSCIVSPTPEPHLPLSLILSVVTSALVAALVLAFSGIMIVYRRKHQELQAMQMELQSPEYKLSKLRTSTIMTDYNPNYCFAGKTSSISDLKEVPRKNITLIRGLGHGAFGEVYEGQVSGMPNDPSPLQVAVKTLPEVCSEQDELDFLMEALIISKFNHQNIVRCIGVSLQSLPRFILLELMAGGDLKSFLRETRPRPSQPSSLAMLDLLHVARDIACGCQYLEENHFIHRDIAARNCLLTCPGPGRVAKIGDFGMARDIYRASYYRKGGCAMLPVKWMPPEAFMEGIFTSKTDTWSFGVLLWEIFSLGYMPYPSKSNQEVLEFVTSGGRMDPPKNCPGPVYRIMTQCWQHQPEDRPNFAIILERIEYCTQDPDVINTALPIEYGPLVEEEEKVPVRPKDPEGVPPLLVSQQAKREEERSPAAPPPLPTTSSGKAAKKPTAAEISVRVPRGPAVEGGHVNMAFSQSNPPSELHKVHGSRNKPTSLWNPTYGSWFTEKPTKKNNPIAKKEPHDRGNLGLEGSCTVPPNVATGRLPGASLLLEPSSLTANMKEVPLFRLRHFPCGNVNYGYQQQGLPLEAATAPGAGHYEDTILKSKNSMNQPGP
Data set [6] has as its target ALK tyrosine kinase receptor (Homo sapiens, UniProt Q9UM73, L1196M). The experiment in a line: Inhibition of ALK L1196M mutant (unknown origin) incubated for 1 hr and measured by mobility shift assay.
In data set [7] the target is Epidermal growth factor receptor (Homo sapiens, UniProt P00533). The experiment in a line: Inhibition of EGFR (unknown origin) incubated for 1 hr and measured by mobility shift assay.
Sequence of Epidermal growth factor receptor (P00533 whole entry): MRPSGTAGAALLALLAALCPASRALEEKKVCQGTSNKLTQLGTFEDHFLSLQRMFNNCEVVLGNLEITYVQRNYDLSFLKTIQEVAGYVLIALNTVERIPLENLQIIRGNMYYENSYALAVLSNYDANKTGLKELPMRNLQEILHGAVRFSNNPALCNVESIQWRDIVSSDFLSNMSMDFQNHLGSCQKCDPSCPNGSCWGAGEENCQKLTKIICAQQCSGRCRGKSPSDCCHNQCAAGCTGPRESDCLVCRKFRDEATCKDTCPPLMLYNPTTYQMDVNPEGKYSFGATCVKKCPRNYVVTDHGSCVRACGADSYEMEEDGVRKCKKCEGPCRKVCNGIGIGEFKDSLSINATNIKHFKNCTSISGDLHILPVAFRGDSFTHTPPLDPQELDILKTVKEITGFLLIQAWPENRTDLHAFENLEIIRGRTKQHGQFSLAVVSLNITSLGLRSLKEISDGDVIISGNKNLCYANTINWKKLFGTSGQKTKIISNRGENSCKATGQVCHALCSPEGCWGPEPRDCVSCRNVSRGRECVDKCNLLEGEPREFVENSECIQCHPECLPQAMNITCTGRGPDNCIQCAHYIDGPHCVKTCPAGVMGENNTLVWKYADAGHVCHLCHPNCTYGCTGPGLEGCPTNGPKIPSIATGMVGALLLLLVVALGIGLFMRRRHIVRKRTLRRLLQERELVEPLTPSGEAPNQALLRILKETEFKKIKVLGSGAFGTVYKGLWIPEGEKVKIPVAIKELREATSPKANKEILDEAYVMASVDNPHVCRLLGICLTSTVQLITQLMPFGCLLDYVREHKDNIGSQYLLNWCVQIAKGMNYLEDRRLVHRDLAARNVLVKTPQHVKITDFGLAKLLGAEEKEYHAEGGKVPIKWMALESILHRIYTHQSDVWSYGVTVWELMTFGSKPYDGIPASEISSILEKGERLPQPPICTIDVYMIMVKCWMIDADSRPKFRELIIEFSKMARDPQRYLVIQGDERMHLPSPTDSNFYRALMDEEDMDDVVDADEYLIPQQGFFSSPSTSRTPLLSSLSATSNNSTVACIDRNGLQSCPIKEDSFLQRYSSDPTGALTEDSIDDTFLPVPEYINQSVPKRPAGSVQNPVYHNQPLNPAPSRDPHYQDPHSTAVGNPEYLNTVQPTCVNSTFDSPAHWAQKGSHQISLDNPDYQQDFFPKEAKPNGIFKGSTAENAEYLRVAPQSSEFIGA

Sequence of ALK tyrosine kinase receptor (Homo sapiens, UniProt Q9UM73, L1196M) (Q9UM73 19-1620 L1196M limits assumed): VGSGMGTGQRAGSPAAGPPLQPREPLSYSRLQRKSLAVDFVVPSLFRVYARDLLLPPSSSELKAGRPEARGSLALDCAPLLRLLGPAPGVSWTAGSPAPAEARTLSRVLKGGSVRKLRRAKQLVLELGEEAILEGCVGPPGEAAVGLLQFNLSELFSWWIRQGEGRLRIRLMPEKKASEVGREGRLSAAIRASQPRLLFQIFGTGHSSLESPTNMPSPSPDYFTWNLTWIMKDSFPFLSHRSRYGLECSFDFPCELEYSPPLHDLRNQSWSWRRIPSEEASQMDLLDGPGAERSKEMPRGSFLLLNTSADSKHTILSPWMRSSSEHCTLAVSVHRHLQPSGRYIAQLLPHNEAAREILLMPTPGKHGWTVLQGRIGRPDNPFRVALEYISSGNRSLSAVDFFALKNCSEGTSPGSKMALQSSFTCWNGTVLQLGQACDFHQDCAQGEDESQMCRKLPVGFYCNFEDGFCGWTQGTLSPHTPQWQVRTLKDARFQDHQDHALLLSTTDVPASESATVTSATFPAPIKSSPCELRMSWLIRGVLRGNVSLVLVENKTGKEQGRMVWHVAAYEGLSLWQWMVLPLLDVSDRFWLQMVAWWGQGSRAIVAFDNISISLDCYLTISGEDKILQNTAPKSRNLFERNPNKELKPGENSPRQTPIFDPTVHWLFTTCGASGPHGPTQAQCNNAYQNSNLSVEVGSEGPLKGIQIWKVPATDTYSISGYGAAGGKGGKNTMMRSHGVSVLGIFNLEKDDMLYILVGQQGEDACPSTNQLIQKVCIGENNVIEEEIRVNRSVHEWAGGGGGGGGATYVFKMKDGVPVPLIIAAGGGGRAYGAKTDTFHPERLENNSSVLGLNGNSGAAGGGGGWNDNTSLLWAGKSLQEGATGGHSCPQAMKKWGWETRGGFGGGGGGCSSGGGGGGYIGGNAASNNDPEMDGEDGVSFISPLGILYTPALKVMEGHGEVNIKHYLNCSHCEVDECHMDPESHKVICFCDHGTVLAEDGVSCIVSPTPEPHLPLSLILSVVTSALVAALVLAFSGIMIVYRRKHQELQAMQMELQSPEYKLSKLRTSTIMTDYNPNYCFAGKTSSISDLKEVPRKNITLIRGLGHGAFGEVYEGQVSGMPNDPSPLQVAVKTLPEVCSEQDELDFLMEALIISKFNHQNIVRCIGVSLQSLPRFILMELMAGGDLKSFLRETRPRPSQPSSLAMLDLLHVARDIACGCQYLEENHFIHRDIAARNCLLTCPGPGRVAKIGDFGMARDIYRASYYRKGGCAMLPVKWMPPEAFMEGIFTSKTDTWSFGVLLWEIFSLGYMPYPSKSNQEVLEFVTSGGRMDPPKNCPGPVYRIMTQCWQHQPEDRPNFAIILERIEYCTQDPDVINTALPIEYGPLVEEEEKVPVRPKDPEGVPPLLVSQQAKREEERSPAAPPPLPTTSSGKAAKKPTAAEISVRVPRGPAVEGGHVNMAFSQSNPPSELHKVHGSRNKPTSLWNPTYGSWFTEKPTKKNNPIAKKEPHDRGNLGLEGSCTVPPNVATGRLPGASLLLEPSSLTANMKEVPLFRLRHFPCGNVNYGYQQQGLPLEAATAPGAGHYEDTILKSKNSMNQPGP
Sequence of ALK tyrosine kinase receptor (Homo sapiens, UniProt Q9UM73, G1202R) (Q9UM73 19-1620 G1202R limits assumed): as the sequence (Q9UM73 19-1620 L1196M limits assumed) above, with M1178L, G1184R counted along it
Description for A549: Antiproliferative activity against EGFR-positive human A549 cells incubated for 72 hrs and measured by CCK-8 assay
Description for KARPAS-299: Antiproliferative activity against NPM-ALK-positive human KARPAS-299 cells incubated for 72 hrs and measured by CCK-8 assay
Description for NCI-H3122: Antiproliferative activity against EML4-ALK-positive human NCI-H3122 cells incubated for 72 hrs and measured by CCK-8 assay

`CCN(CC)CC(=O)Nc1n[nH]c2cc(Nc3ncc(Cl)c(Nc4ccccc4C(=O)NC)n3)ccc12`: the half-maximal inhibitory concentration (IC50) (in general, the midpoint of a concentration-inhibition curve) was found to be 17 nM in the data set with KARPAS-299, 2350 nM with A549, 62 nM in the data set on NCI-H2228 [1] and 85 nM in the data set with NCI-H3122.
On to `Cc1cc(Nc2ncc(Cl)c(Nc3ccccc3S(=O)(=O)C(C)C)n2)c(OC(C)C)cc1C1CCNCC1` [CERITINIB], for which the IC50 in the data set on KARPAS-299 worked out at 24 nM; in the data set on PC-3, 1020 nM; with A549 it was 2770 nM; in the data set on NCI-H1581 it was 2310 nM; with NCI-H2228 [1] it was 66 nM; in the data set on MCF7, 1870 nM. The IC50 amounted to 1930 nM in the data set on HCT-116 and 43 nM in the data set on NCI-H3122. Besides, the Activity with NCI-H2228 [2] is 12.32%. Also, in [3], the IC50 at 72 h is more than 20000 nM.
`CNC(=O)c1ccccc1Nc1nc(Nc2ccc3c(NC(=O)CN4CCC(=O)CC4)n[nH]c3c2)ncc1Cl`: the half-maximal inhibitory concentration (IC50) stood at 63 nM in the data set on KARPAS-299, 2030 nM in the data set with A549, 569 nM in the data set with NCI-H2228 [1] and 187 nM in the data set on NCI-H3122.
For the compound `CNC(=O)c1ccccc1Nc1nc(Nc2ccc3c(NC(=O)CN4CCN(CCO)CC4)n[nH]c3c2)ncc1Cl`, the IC50 with KARPAS-299 amounted to 53 nM; with A549, 13600 nM; with NCI-H2228 [1] it was 412 nM; in the data set with NCI-H3122, 175 nM.
Turning to `CNC(=O)c1ccccc1Nc1nc(Nc2ccc3c(NC(=O)CN4CCCC4)n[nH]c3c2)ncc1Cl`, the IC50 in data set [4] stood at 2.1 nM; in data set [5], 3.6 nM; in data set [6], 4.4 nM.
For `CC1CCN(CC(=O)Nc2n[nH]c3cc(Nc4ncc(Cl)c(Nc5ccccc5S(=O)(=O)C(C)C)n4)ccc23)CC1`, the IC50 came out at 16 nM in the data set on KARPAS-299, 1470 nM in the data set on A549, 104 nM with NCI-H2228 [1] and 65 nM in the data set on NCI-H3122.
Take `CNC(=O)c1ccccc1Nc1nc(Nc2ccc3c(NC(=O)CN4CCSCC4)n[nH]c3c2)ncc1Cl`: the IC50 in the data set with KARPAS-299 was 76 nM; in the data set on A549, 1220 nM; in the data set with NCI-H2228 [1], 322 nM; in the data set with NCI-H3122 it was 137 nM.
As for `C/C=C/C(=O)Nc1ccccc1Nc1nc(Nc2ccc3c(NC(=O)CN(C)C)n[nH]c3c2)ncc1Cl`, the IC50 was 1250 nM with KARPAS-299, 5910 nM in the data set on A549, 2980 nM in the data set on NCI-H2228 [1] and 3690 nM with NCI-H3122.
Taken in the same sequence, the figures for `CCN1CCN(CC(=O)Nc2n[nH]c3cc(Nc4ncc(Cl)c(Nc5ccccc5C(=O)NC)n4)ccc23)CC1` were 21 nM, 4470 nM, 242 nM and 162 nM.
On to `CC(C)S(=O)(=O)c1ccccc1Nc1nc(Nc2ccc3c(NC(=O)CN4CCN(C)CC4)n[nH]c3c2)ncc1Cl`, for which the IC50 with KARPAS-299 came to 34 nM; in the data set with A549, 3580 nM; with NCI-H2228 [1] it was 520 nM; with NCI-H3122 it was 89 nM.
`CCN1CCN(CC(=O)Nc2n[nH]c3cc(Nc4ncc(Cl)c(Nc5ccccc5S(=O)(=O)C(C)C)n4)ccc23)CC1`: the IC50 in the data set on KARPAS-299 was 26 nM; in the data set on A549, 3970 nM; in the data set with NCI-H2228 [1] it was 140 nM; in the data set on NCI-H3122 it was 84 nM.
The matching figures for `CNC(=O)c1ccccc1Nc1nc(Nc2ccc3c(NC(=O)CN4CCCCC4)n[nH]c3c2)ncc1Cl`: 31 nM, 7210 nM, 204 nM and 107 nM.
Taken in the same sequence, the figures for `CC(C)S(=O)(=O)c1ccccc1Nc1nc(Nc2ccc3c(NC(=O)CN4CCCCC4)n[nH]c3c2)ncc1Cl` were 19 nM, 3260 nM, 133 nM and 83 nM.
For `CN(C)CC(=O)Nc1n[nH]c2cc(Nc3ncc(Cl)c(Nc4ccccc4NC(=O)C(C)(C)C)n3)ccc12`, the IC50 with KARPAS-299 was 718 nM; in the data set with A549 it was 1690 nM; in the data set on NCI-H2228 [1] it was 912 nM; with NCI-H3122, 1570 nM.
Taken in the same sequence, the figures for `CC(=O)Nc1ccccc1Nc1nc(Nc2ccc3c(NC(=O)CN(C)C)n[nH]c3c2)ncc1Cl` were 359 nM, 1670 nM, 770 nM and 74 nM.
Taken in the same sequence, the figures for `CC(C)S(=O)(=O)c1ccccc1Nc1nc(Nc2ccc3c(NC(=O)CN4CCC(O)CC4)n[nH]c3c2)ncc1Cl` were 41 nM, 1840 nM, 170 nM and 129 nM.
For `CNC(=O)c1ccccc1Nc1nc(Nc2ccc3c(NC(=O)CN4CCC(O)CC4)n[nH]c3c2)ncc1Cl`, the IC50 in the data set with KARPAS-299 stood at 59 nM; in the data set on A549, 2000 nM; in the data set on NCI-H2228 [1], 362 nM; in the data set on NCI-H3122, 151 nM.
On to `CC(C)S(=O)(=O)c1ccccc1Nc1nc(Nc2ccc3c(NC(=O)CN4CCSCC4)n[nH]c3c2)ncc1Cl`, for which the IC50 in the data set with KARPAS-299 was 36 nM; in the data set with A549 it was 1180 nM; with NCI-H2228 [1], 126 nM; with NCI-H3122 it was 124 nM.
As to `CN(C)CC(=O)Nc1n[nH]c2cc(Nc3ncc(Cl)c(Nc4ccccc4NS(=O)(=O)C4CC4)n3)ccc12`, the IC50 in the data set on KARPAS-299 was 169 nM; in the data set with A549, 1850 nM; with NCI-H2228 [1], 781 nM; in the data set on NCI-H3122, 1530 nM.
For the compound `CN(C)CC(=O)Nc1n[nH]c2cc(Nc3ncc(Cl)c(Nc4ccccc4NC(=O)C(Cl)(Cl)Cl)n3)ccc12`, the IC50 turned out to be 1270 nM in the data set with KARPAS-299, 5780 nM with A549, 1450 nM in the data set with NCI-H2228 [1] and 2960 nM in the data set with NCI-H3122.
`CC(C)S(=O)(=O)c1ccccc1Nc1nc(Nc2ccc3c(NC(=O)CN4CCOCC4)n[nH]c3c2)ncc1Cl`: the IC50 came to 22 nM with KARPAS-299, 2390 nM in the data set on A549, 124 nM with NCI-H2228 [1] and 73 nM with NCI-H3122.
In the case of `CN(C)CC(=O)Nc1n[nH]c2cc(Nc3ncc(Cl)c(Nc4ccccc4NS(C)(=O)=O)n3)ccc12`, the IC50 amounted to 132 nM in the data set with KARPAS-299, 3440 nM in the data set on A549, 339 nM with NCI-H2228 [1] and 245 nM in the data set on NCI-H3122.
As for `CCN(CC)CC(=O)Nc1n[nH]c2cc(Nc3ncc(Cl)c(Nc4ccccc4S(=O)(=O)C(C)C)n3)ccc12`, the IC50 is 21 nM in the data set on KARPAS-299; 1.8 nM in data set [4]; 2560 nM with A549; 3.3 nM in data set [5]; 45 nM in the data set on NCI-H2228 [1]; more than 1000 nM in [7]. Moreover, the IC50 was found to be 57 nM in the data set with NCI-H3122 and 3.8 nM in [6].
Consider `CC(C)S(=O)(=O)c1ccccc1Nc1nc(Nc2ccc3c(NC(=O)CN(C)C)n[nH]c3c2)ncc1Cl`, for which the IC50 in [4] was 3.8 nM; in data set [5], 2.5 nM; in data set [6] it was 4.8 nM.
Consider `CNC(=O)c1ccccc1Nc1nc(Nc2ccc3c(NC(=O)CN4CCC(C)CC4)n[nH]c3c2)ncc1Cl`, for which the IC50 came to 29 nM in the data set on KARPAS-299, 4810 nM with A549, 113 nM in the data set on NCI-H2228 [1] and 71 nM in the data set with NCI-H3122.
For the compound `CNC(=O)c1ccccc1Nc1nc(Nc2ccc3c(NC(=O)CN(C)C)n[nH]c3c2)ncc1Cl`, the IC50 was 12 nM in the data set with KARPAS-299; 2.5 nM in data set [4]; 2190 nM in the data set on A549; 3.7 nM in data set [5]; 51 nM in the data set on NCI-H2228 [1]; more than 1000 nM in data set [7]. For the same compound, the results for the IC50 (in the data set with NCI-H3122; in data set [6]) were 21 nM and 6.6 nM, respectively.
Regarding `C=CC(=O)Nc1ccccc1Nc1nc(Nc2ccc3c(NC(=O)CN(C)C)n[nH]c3c2)ncc1Cl`, the half-inhibitory concentration (IC50) in the data set with KARPAS-299 worked out at 899 nM; with A549, 4490 nM; in the data set on NCI-H2228 [1], 1820 nM; in the data set on NCI-H3122 it was 3490 nM.
Taken in the same sequence, the figures for `CNC(=O)c1ccccc1Nc1nc(Nc2ccc3c(NC(=O)CN4CCOCC4)n[nH]c3c2)ncc1Cl` were 23 nM, 2230 nM, 112 nM and 97 nM.
As to `CN(C)CC(=O)Nc1n[nH]c2cc(Nc3ncc(Cl)c(Nc4ccccc4NC(=O)C4CC4)n3)ccc12`, the IC50 came out at 558 nM in the data set on KARPAS-299, 1320 nM in the data set with A549, 823 nM in the data set on NCI-H2228 [1] and 836 nM in the data set with NCI-H3122.
For the compound `CC(C)S(=O)(=O)c1ccccc1Nc1nc(Nc2ccc3c(NC(=O)CN4CCN(CCO)CC4)n[nH]c3c2)ncc1Cl`, the IC50 with KARPAS-299 came to 46 nM; with A549, 7260 nM; in the data set on NCI-H2228 [1], 250 nM; in the data set on NCI-H3122, 157 nM.

The record behind these values is ChEMBL document CHEMBL5108011, “Design, synthesis and antitumor evaluation of ATP dual-mimic 2,4-diarylaminopyrimidine and aminoindazole conjugates as potent anaplastic lymphoma kinase inhibitors” (Eur J Med Chem, 2022).
